Experimental findings from US20220079912A1, “ANTICANCER FORMULATION” (University of Mississippi, priority 2018, published 2022) are described below.

In series [1] the test system is T98G human glioblastoma cells. Description: Lactic acid accumulation in cell culture medium. It is filed as cell-based. The settings on record: three hour period; for inhibition of lactic acid production (accumulation): different concentrations, FIG. 6, FIG. 7.
From the text: Acidification of the cell culture medium occurs because of the enhanced use of glycolysis by transformed cells (and resulting increase in lactic acid production). This led us to investigate whether GH reduced lactic acid levels in the cell culture medium.
Series [2] deals with T98G cells. In words: Combination cytotoxicity with mitochondrial complex I inhibitors (% cell survival). From the text: Example 2: Gnetin H In Combination with Mitochondrial Complex I Inhibitors. […] The plus signs above the combination treatment bars indicates the value of % cell survival if the anti-proliferative effect was additive.
In FIGS. 9 A-B., the plus signs are placed above the combination treatment bars at the % cell survival value if the anti-proliferative effect was additive. […] Both T98G and MDA-MB-231 cells lack functional p53 but B16 are p53 wild type.
Example 4: Peony Seed extract. […] T98G cells were treated with different concentrations of purified GH (numbers indicate μM) or PSE (numbers indicate μg/ml) alone or in combination with a Paw Paw (PP) extract (2 μg/ml) for 48 hrs (FIG. 12 A). The plus signs are placed above the combination treatment bars at the % cell survival value if the anti-proliferative effect was additive. […] T98G cells were treated with different concentrations of purified GH or PSE in combination with a Paw Paw extract (2 μg/ml) for 48 hrs (FIG. 12 B).

The next series concerns ARRDC4 mRNA. In words: Differential gene expression analysis (RNA-Seq) in T98G cells. It is filed as cell-based, human. As to conditions: 2 hours, GH 8 μM, 2-DG 25 mM, Ph 100, minus = reduced, plus = increase, NC = no change. The source says:
(§1) GH inhibits expression of TXNIP and ARRDC4 mRNAs. […] Since the transcription factors (MondoA/Mlx complex) regulating the expression of the TXNIP gene is thought to be controlled by intermediates in the upper portion of the glycolytic pathway (12), GH may be negatively impacting this portion of glycolysis. Reduction in the levels of these intermediates by GH would prevent activation of the MondoA/Mlx transcription complex and would result in suppression of TXNIP transcription and TXNIP mRNA levels. Both of these gene products (TXNIP and ARRDC4) are thought to suppress glucose transport by enhancing degradation of glucose transporters (12).

Series [3] has as its system TXNIP protein levels. In words: Western blot of TXNIP protein, MDA-MB-231 cell line. The settings on record: FIG. 16, FIG. 18; for TXNIP protein levels, agent alone: GH 8 μM 6 hrs or 3 hrs, 2-DG 25 mM, OXA 25 mM, BPX 25 μM, DCA 25 mM, 6 hr. Type of series: cell-based, human. The source says:
(§2) AMPK activation has been previously shown to phosphorylate and cause the degradation of TXNIP during energy stress (13).

For series [4], the system named is TXNIP protein levels. Description: Western blot of TXNIP protein, T98G cell line. Type of series: cell-based, human. As to conditions: FIG. 15, FIG. 17; for TXNIP protein levels, agent alone: GH 8 μM 6 hrs or 3 hrs, 2-DG 25 mM, OXA 25 mM, BPX 25 μM, DCA 25 mM, 6 hr.
From the text: as §2

Series [5] deals with B16 cells. In words: Lactic acid export (intracellular lactic acid levels). It is filed as cell-based, mouse. As to conditions: 3 hours, FIG. 4. The protocol: To prevent the buildup of lactic acid within the cell a family of monocarboxylate transporters (MCT) functions to transport lactic acid out of the cell (10). To determine if GH inhibits lactic acid export from the cell, and in this manner inhibits the accumulation of lactic acid in the cell culture medium, intracellular lactic acid levels were measured. If GH inhibited lactic acid export, treatment of cells with GH would result in the increase in intracellular lactic acid levels. As a positive control the MCT1 inhibitor AZD3965 was used.

The next series relates to TXNIP mRNA. Description: Differential gene expression analysis (RNA-Seq) in T98G cells. It is filed as cell-based, human. The settings on record: 2 hours, GH 8 μM, 2-DG 25 mM, Ph 100, minus = reduced, plus = increase, NC = no change.
From the text: as §1

Series [6] has as its system B16 cells. Description: Glucose transport (2-NBDG accumulation). Type of series: cell-based, mouse. As to conditions: B16, treated for one hour followed by 2-NBDG for one hour.
For a further series, the system named is MDA-MB-231 cells. In words: Glucose transport (2-NBDG accumulation). Type of series: cell-based, human. As to conditions: MDA-MB-231, treated for one hour followed by 2-NBDG for one hour. The source says:
Phloretin, a known glucose transport inhibitor, was used as a positive control. Accumulation of 2-NDGB was inhibited by phloretin by 54% in T98G cells, by 31% in B16 cells and by 74% in MDA-MB-231 cells. The first panel for each cell line represents unstained cells, the second stained with 2-NBDG for one hour, the third treated with GH for one hour followed by 2-NBDG for one hour and the fourth treated with phloretin for one hour followed by 2-NBDG for one hour.

The subject of series [7] is T98G cells. Description: Glucose transport (2-NBDG accumulation). It is filed as cell-based, human. The settings on record: treated for one hour followed by 2-NBDG for one hour.

`Oc1ccc(/C=C/c2cc(O)cc3c2[C@@H](c2cc(O)cc(O)c2)[C@H](c2ccc(O)cc2)O3)cc1` (relative stereo) [Vin, trans-ε viniferin, reference compound]: in series [1] (40 μM, FIG. 6), the “inhibition of lactic acid production” value is 40%. For the same compound, in the series on T98G cells [2], the “synergistic cytotoxicity in combination with phenformin (Ph) at 100 μM” value is on record as “did not mimic GH activity”.

Consider `O=CC[C@@H](O)[C@H](O)[C@H](O)CO` [2-DG, 2-deoxyglucose], for which the “ARRDC4 mRNA fold change” value in the series on ARRDC4 mRNA was “+3 fold”. In the series on TXNIP protein levels [3], the “TXNIP protein levels, in combination with Ph” value (“TXNIP protein levels … with Ph” below) is “reduction of TXNIP protein levels” and the “TXNIP protein levels, agent alone” value is “increased TXNIP protein levels”. For the same compound, in the series with TXNIP protein levels [4], the “TXNIP protein levels … with Ph” value is given as “reduction of TXNIP protein levels” and the “TXNIP protein levels, agent alone” value is listed as “increased TXNIP protein levels”. In addition, the “synergistic cytotoxicity in combination with phenformin (Ph) at 100 μM” value in the series on T98G cells [2] is “not synergistically cytotoxic”.

For the compound `Cc1[nH]nc(C(F)(F)F)c1Cc1sc2c(c1C(=O)N1C[C@](C)(O)CO1)c(=O)n(C)c(=O)n2C(C)C` [AZD3965, reference compound], the “accumulation of intracellular lactic acid above control values” in the series with B16 cells [5] is on record as ~4 fold.

With `O=C(O)C(=O)CBr` [BPX, 3-bromopyruvate], in the series on TXNIP protein levels [3], the “TXNIP protein levels … with Ph” value is “reduced TXNIP protein levels” and the “TXNIP protein levels, agent alone” value is on record as “do not substantially reduce TXNIP protein levels”. Also, in the series with TXNIP protein levels [4], the “TXNIP protein levels … with Ph” value is reported as “reduced TXNIP protein levels” and the “TXNIP protein levels, agent alone” value was “do not substantially reduce TXNIP protein levels”.

In the case of `CC(=O)N[C@@H](CS)C(=O)O` [NAC, n-acetylcysteine], the “inhibition of lactic acid production (accumulation)” value in [1] is reported as “did not inhibit lactic acid production”.

For `[H]/N=C(/N)N/C(=N/[H])NCCc1ccccc1` [Ph, phenformin, reference compound], in the series on TXNIP mRNA, the “TXNIP mRNA fold change” value is reported as −2.5 fold.

`Oc1ccc(C=Cc2cc(O)cc(O)c2)cc1` [Res, Resveratrol]: in [1], the “inhibition of lactic acid production (accumulation)” value is “did not inhibit lactic acid production”.

As for `O=C(CCc1ccc(O)cc1)c1c(O)cc(O)cc1O` [phloretin, Phloretin, reference compound], the “inhibition of accumulation of 2-NBDG” value was determined as 31% in the series with B16 cells [6], 74% in the series with MDA-MB-231 cells and 54% in the series with T98G cells [7].
